Test results reported in patent US20160289678A1, “USE OF MICRORNA 146-A IN THE DIAGNOSIS, TREATMENT AND PREVENTION OF PICORNAVIRUS INFECTION AND MICRORNA 146-A ANTAGONISTS” (priority 2013, published 2016).
Entries after “also recorded” stand apart in the source; their conditions may differ.

Assays:
[1] = system: mEV71; experiment: LNA antagomiR injection in EV71 infection mouse model: mice survival; assay type: in vivo, C57BL/6 mice
Source text: (§1) The sequence of LNA antagomiR-146a used in the example is 5′-[…]-3′ (SEQ ID NO:20). Even though the importance of miR-146a in EV71 pathogenesis was clearly elucidated by using miR-146a^−/− mice model, however, the therapeutic potential of miR-146a silencing should be practically evaluated in EV71 infection mouse model. LNA antagomiR-146a, designed locked nucleic acid, was first injected intraperitoneally to evaluate the potential adverse events caused by LNA antagomiRs. […] After making sure the safety of LNA antagomiRs, we next introduced LNA AntagomiR-146a into wild-type mice before or after virus infection as indicated and monitored clinical symptoms of mice daily. […] To verify whether attenuation of virus-induced miR-146a by LNA antagomiR-146a could restore the expression of miR-146a targets, IRAK1 and TRAF6 in assayed organs were measured by Western blot.
Mouse-adapted EV71 and LNA AntagomiRs Administration. C57BL/6 mice were provided by the Knockout Mouse Core Laboratory of National Taiwan University Center of Genomic Medicine, housed in specific pathogen-free animal rooms, and treated according to guidelines from the National Taiwan University College of Medicine and College of Public Health Institutional Animal Care and Use Committee (IACUC). Mouse-adapted EV71 (mEV71) was established referring to a report published by Wang, Y. F. in 2004. mEV71 was generated after four serial passages in neonate mice started from parental human EV71 Parental human EV71 was injected intraperitoneally and next generation mEV71, called 1st mEV71, was isolated from neonate mice brain tissue at 3 d.p.i. The isolated 1st mEV71 was then propagated in RD cells. The passage procedures were performed four times. To determine the 50% lethal dose (LD50), seven-day-old wild-type C57BL/6 mice were fed with indicated PFUs of mEV71. The survival of mice was monitored daily. For wild-type C57BL/6 mice and miR-146a−/− C57BL/6 mice inoculation, each group (n=9 to 13) housed in the same cage was infected with indicated PFUs of mEV71 through the oral route, and the control group was fed with culture medium. The animals were monitored daily, and clinical signs, weight and mortality were recorded. All mouse tissues were obtained from scarified mice with significant clinical illness signs or at 3 d.p.i. if mice had no significant illness signs. The tissues were further assayed for real-time RT-PCR, Western blot, plaque assay, immunohistochemistry staining, and so on. For LNA antagomiRs injection, wild-type mice were injected with LNA antagomiR-146a (1.2 mg/kg) or LNA antagomiR negative control (1.2 mg/kg) through the intraperitoneal route before or after virus infection as indicated and monitored daily. The institutional animal care and use committee (IACUC) approved all animal protocols.

[2] = Potential adverse events of LNA antagomiRs: HE staining and blood chemistry (liver, kidney, serum); assay type: in vivo, mice; details: intraperitoneal injection
Source text: as §1
Mouse-adapted EV71 and LNA AntagomiRs Administration. […] The survival of mice was monitored daily. […] The animals were monitored daily, and clinical signs, weight and mortality were recorded. […] For LNA antagomiRs injection, wild-type mice were injected with LNA antagomiR-146a (1.2 mg/kg) or LNA antagomiR negative control (1.2 mg/kg) through the intraperitoneal route before or after virus infection as indicated and monitored daily. […]

[3] = system: IFNβ; experiment: IFNβ expression in EV71-infected mice by real-time RT-PCR; assay type: in vivo, C57BL/6 mice; details: EV71-infected wild-type mice treated at 0 and 1 d.p.i., vs mock infection and negative control
Source text: as §1
(§2) Individual Real-Time RT-PCR. Quantification of miR-146a, Homo RNU6B, mus U6 snRNA , mus IFNβ, and mus β-actin were performed using TaqMan microRNA individual assays or TaqMan gene expression assays (000468, 001093, 001973, Mm00439546_s1 and Mm00607939_s1; Life Technologies) according to the manufacturer's instructions. […] The threshold cycle (CT) is defined as the fractional cycle number at which the fluorescence passes the fixed threshold. […]
(§3) Mouse-adapted EV71 and LNA AntagomiRs Administration. […] The survival of mice was monitored daily. […]

[4] = system: IRAK1 and TRAF6; experiment: IRAK1 and TRAF6 expression in organs of mEV71-infected mice by Western blot; assay type: in vivo, C57BL/6 mice; details: specifically heart, lung and muscle
Source text: as §1
Western Blot. Cells or tissues were harvested in RIPA lysis buffer [50 mM Tris-HCl (pH 7.4), 150 mM NaCl, 1 mM EDTA, 1% Triton X-100, 0.1% SDS, 1% sodium deoxycholate, 1 mM PMSF, and protease inhibitor cocktail], and the protein concentration was measured by the BCA protein assay (BioRad). […]
Mouse-adapted EV71 and LNA AntagomiRs Administration. […] The survival of mice was monitored daily. […] The animals were monitored daily, and clinical signs, weight and mortality were recorded. […]

[5] = system: miR-146a; experiment: miR-146a expression in organs of mEV71-infected mice by real-time RT-PCR; assay type: in vivo, C57BL/6 mice; details: treatment at 0 and 1 d.p.i.; particularly intestine, muscle and lung; vs mock infection / negative control
Source text: as §1, §2, §3

[6] = system: IRAK1 and TRAF6; experiment: IRAK1 and TRAF6 Western blot in EV71-infected Caco-2 cells; assay type: cell-based, Human; details: compared with negative controls
[7] = system: TRAF6 and IRAK1; experiment: TRAF6 and IRAK1 in mEV71-infected MEF cells; assay type: cell-based; details: MEF cells transfected, then mEV71 infection; vs antagomiR-NC
Source text: MEF cells were infected with mEV71, followed by quantification of miR-146a using real-time RT-PCR (n=3). MI, mock infection. * P-value <0.05 as compared with mock infection. (b) mEV71 infection suppressed IRAK1 and TRAF6 expressions in protein level in MEF cells. (c) Predicted mus miR-146a BSs within mus IRAK1 and TRAF6 3′UTRs (the first nucleotide following the stop codon was designated as +1). (d) The effect of the ectopic miR-146a on the endogenous IRAK1 and TRAF6. MEF cells were transfected with the miR-146a overexpressing vector or negative control and assayed for IRAK1 and TRAF6 and for miR-146a by western blot and real-time RT-PCR, respectively (n=3). MT, mock transfection; NC, negative control. (e) AntagomiR-146a restored mEV71-induced suppression of TRAF6 and IRAK1 in MEF cells. MEF cells were transfected with antagomiR-146a or antagomiR-NC followed by mEV71 infection. All data presented are mean±s.d. and all P-values are calculated by Student's t-test.

[8] = system: IFNβ promoter; experiment: IFNβ promoter luciferase assay in EV71-infected RD cells; assay type: cell-based, Human; details: henceforth 4 h.p.i., compared with negative control or mock transfection
Experimental: Luciferase Assay. All transfections were carried out in triplicate in 96-well plates. RD cells (1×10^4 per well) were seeded 24 h prior to transfection. The luciferase reporter constructs along with the control plasmids (pRL-TK Vector; Promega) were co-transfected into cells at the DNA ratio 5:1 in the presence of pSilencer miRNA expressing vectors (Life Technologies) as indicated by Lipofectamine LTX reagent (Life Technologies). After 48 h incubation, the Dual-Glo luciferase substrate (Promega) was added to each well and the luminescent signals were measured by Victor3 multilabel counter (PerkinElmer) according to the manufacturer's instructions. For IFNβ promoter assays, the reporter constructs were co-transfected with antagomiR-NC or antagomiR-146a into RD cells prior to virus infection. After 24 h incubation, all transfectants were infected with EV71 and assayed at indicated time points. The activity of Renilla luciferase was used as an internal control to normalize transfection efficiency.

[9] = system: IFNβ; experiment: IFNβ mRNA expression in EV71-infected RD cells by real-time RT-PCR; assay type: cell-based, Human; details: antagomiR-146a transfectants, EV71 infection
[10] = system: IRAK1 and TRAF6; experiment: IRAK1 and TRAF6 Western blot in EV71-infected RD cells; assay type: cell-based, Human; details: antagomiR transfected into host cells followed by virus infection

## 5′-AACCCATGGAATTCAGTTCTCA-3′ (LNA-modified, pattern not given here) [LNA antagomiR-146a, designed locked nucleic acid miR-146a antagonist, 22 nucleotides]
[1]; injection 1 hour before virus infection (0 d.p.i.), 1.2 mg/kg intraperitoneal, 2*10^8 PFU mEV71
  survival: 80%
[1]; injection at 1 d.p.i., 1.2 mg/kg intraperitoneal, 2*10^8 PFU mEV71
  survival: 70%
[1]; injection at 2 d.p.i., 1.2 mg/kg intraperitoneal
  survival: 56%
[1]; injection at 3 d.p.i.
  survival: did not improve mice survival
[1]; intraperitoneal, injected before (0 d.p.i.) or after (1 and 2 d.p.i.) virus infection
  survival probability: improves survival probability
[2]
  pathological changes (HE staining and blood chemistry of liver, kidney, serum): no significant pathological changes
[3]
  IFNβ expression: regain of IFNβ production
[3]; listed as LNA is antagomiR-146a
  IFNβ expression: induced
[4]
  IRAK1 and TRAF6 expression: restored
[5]
  virus-induced miR-146a expression: neutralized; also recorded: dramatically suppressed

## antagomiR-146a: specific antagomiR (Life Technologies) transfected into cells to neutralize virus-induced miR-146a (antisense AACCCATGGAATTCAGTTCTCA; LNA-modified, pattern not given here)
[6]
  IRAK1 and TRAF6 expression: restored
[6]; listed as AntagomiR-146a
  IRAK1 and TRAF6 expression: restores
[7]
  mEV71-induced suppression of TRAF6 and IRAK1: restored
[8]
  IFNβ promoter activity: attenuated
[8]; listed as AntagomiR-146a
  IFNβ promoter activity: restored
[9]
  IFNβ mRNA expression: increased dramatically
[9]; listed as AntagomiR-146a
  IFNβ mRNA expression: eliminated the suppression
[10]
  IRAK1 and TRAF6 expression: restored
[10]; listed as AntagomiR-146a
  IRAK1 and TRAF6 expression: recovered remarkably
